Experimental data published in the NIST ThermoML archive (doi:10.1021/acs.jced.6b00893).
± gives the expanded uncertainty stated by the source.

Conditions: Liquid, Ebulliometric method (Recirculating still)

SMILES: c1ccccc1 [benzene]
- vapor or sublimation pressure (353.25 K): 101.3 ± 0.5 kPa

SMILES: O [water]
- vapor or sublimation pressure (373.15 K): 101.3 ± 0.5 kPa

SMILES: C=CCO [2-propenol]
- vapor or sublimation pressure (369.75 K): 101.3 ± 0.5 kPa
